Assay results taken from PMC10510102, “Efficient Ligand Discovery Using Sulfur(VI) Fluoride Reactive Fragments” (ACS Chemical Biology, 2023).

Columns and labels:
[1] = target: T1, BCL6 (Homo sapiens, UniProt P41182, C67R/C84N/C8Q); experiment: Kinetic analyses of covalent modification, intact protein LC-MS; format: binding; settings: 0.5 μM BCL6; 5-100 μM SF; 4 °C
T1 construct: hBCL6-Flag-6H-Avi 3Cmut (5–129) produced as part of the GSK/GenScript collaboration; Flag (C); 6H (His6) (C); Avi (C)
Description: (§1) The fluorescence intensity data from the individual replicates of each sample type were normalized and identically truncated within GraphPad Prism 5.0.4.11 These values were subsequently fitted to equation (4) corresponding to a Boltzmann sigmoid in order to obtain the melting temperature (“V50”; T m) of the protein:
(§2) Y=BOTTOM+((TOP+BOTTOM)/(1+exp((V50–X)/SLOPE))) (4)
(§3) The three obtained T m values were averaged to give a final T m value in each case. The normalized fluorescence data for the three replicates of each sample were averaged to yield a single dataset for each case, which were then plotted in GraphPad Prism 5.0.4 to give the plots shown in the manuscript.11
(§4) Table S9. Thermal melting temperatures of unmodified and covalently modified BCL6 BTB/POZ domain as determined by differential scanning fluorimetry measurements.
(§5) The arithmetic mean and standard deviation from three replicates are shown.
(§6) Hit Chemotype Protein Species Tm / °C ΔT m / °C […]
meta-Substituted Benzamide BCL6 + 2g 70.4 ± 0.3 +11.7
Azetidinyl Fragments BCL6 + 2h 55.5 ± 0.1 −3.2 […]
8.3. Protocol for kinetic analyzes (BCL6) […]
BCL6 BTB domain (BCL65–129(C8Q,C67R,C84N)-FLAG, 10 µM) was incubated with each compound (500 µM, eq. 0.25% v/v DMSO) in 20 mM Tris pH 8.5 and 150 mM NaCl (2 mL) at 20 °C for 6 h. […] The protein-fragment complex was concentrated to >6 mg/mL, as determined by spectrophotometry. […]

[2] = target: BCL6 BTB/POZ domain (Homo sapiens, UniProt P41182, C67R/C84N/C8Q); experiment: Cocrystal structure with BCL6 BTB/POZ dimer; design: hBCL6-Flag 3Cmut (5-129) produced in house; FLAG (C); made in house; settings: via a sulfonate ester
Description: Crystal structures of SFs 2f and 2s within BCL6 were generated to further investigate the binding mode of the fragments; this used a previously published protocol.[42] […] The twisted conformation of 2s could also represent a premodified state of the protein–SF complex, which may have become disrupted for 2f upon covalent modification with Tyr57 to afford the extended conformation observed.
as §1, §2, §3, §4, §5, §6

| SMILES | Ki [1] [µM] | residue covalently conjugated in cocrystal structure [2] |
| --- | --- | --- |
| CN(C)C(=O)Nc1cccc(CNC(=O)Cc2ccc(S(=O)(=O)F)cc2)c1 [2f] | 56 | Tyr57 |
| CC(=O)Nc1cccc(CNC(=O)Cc2ccc(S(=O)(=O)F)cc2)c1 [2g] | 80 |  |
